According to US9730914B2, “3,5-diaminopyrazole kinase inhibitors” (Axikin Pharmaceuticals, Inc., priority 2014, dated 2017):

Columns and labels:
[1] = target: T1, kinase domain protein of RC kinase (RCK) (Homo sapiens, UniProt Q56UN5); assay: Kinase competition binding assay (Kd, qPCR readout), RC kinase; settings: Kd class, read-out: RCK Activity Level
T1 construct: made in house; host or cells: E. coli BL21-derived host (T7 phage) or HEK-293
T1 sequence (Q56UN5 1061-1324 limits assumed): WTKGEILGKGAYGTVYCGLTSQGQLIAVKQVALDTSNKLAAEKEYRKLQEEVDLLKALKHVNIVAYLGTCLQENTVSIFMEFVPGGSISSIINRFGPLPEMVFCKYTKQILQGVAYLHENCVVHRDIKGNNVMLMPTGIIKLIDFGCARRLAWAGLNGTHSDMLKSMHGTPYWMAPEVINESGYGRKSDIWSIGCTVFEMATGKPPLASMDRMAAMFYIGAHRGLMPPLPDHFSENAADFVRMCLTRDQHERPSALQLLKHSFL
Description: (§1) For most assays, kinase-tagged T7 phage strains were prepared in an E. coli host derived from the BL21 strain. E. coli were grown to log-phase and infected with T7 phage and incubated with shaking at 32° C. until lysis. The lysates were centrifuged and filtered to remove cell debris. The remaining kinases were produced in HEK-293 cells and subsequently tagged with DNA for quantitative PCR (qPCR) detection.
(§2) Streptavidin-coated magnetic beads were treated with biotinylated small molecule ligands for 30 minutes at room temperature to generate affinity resins for kinase assays. The liganded beads were blocked with excess biotin and washed with blocking buffer (SeaBlock (Pierce), 1% BSA, 0.05% Tween 20, 1 mM DTT) to remove unbound ligand and to reduce nonspecific binding. Binding reactions were assembled by combining kinases, liganded affinity beads, and test compounds in 1× binding buffer (20% SeaBlock, 0.17×PBS, 0.05% Tween 20, 6 mM DTT). All reactions were performed in polystyrene 96-well plates in a final volume of 0.135 mL. The assay plates were incubated at room temperature with shaking for 1 hour and the affinity beads were washed with wash buffer (1×PBS, 0.05% Tween 20). The beads were then re-suspended in elution buffer (1×PBS, 0.05% Tween 20, 0.5 μM non-biotinylated affinity ligand) and incubated at room temperature with shaking for 30 minutes. The kinase concentration in the eluates was measured by qPCR.
(§3) An 11-point 3-fold serial dilution of each test compound was prepared in 100% DMSO at 100× final test concentration and subsequently diluted to 1× in the assay (final DMSO concentration=1%). Most Kd values were determined using a compound top concentration=30,000 nM. If the initial Kd determined was <0.5 nM, (the lowest concentration tested), the measurement was repeated with a serial dilution starting at a lower top concentration. A more detailed description of this assay may be found in Fabian, M. A. et al. Nat. Biotechnol. 2005, 23, 329-336, which is incorporated herein in its entirety.
(§4) The biological results of inhibition of the kinase domain protein of RC kinase (RCK) and JAK2 and JAK3 are summarized in Tables 2 and 3, wherein A represents a Kd of <50 nM; B represents 50 nM<Kd<100 nM; C represents 100 nM<Kd<1000 nM; and D represents a Kd>1000 nM.

JAK2 = target: T2, JAK2 (Homo sapiens, UniProt O60674); assay: Kinase competition binding assay (Kd, qPCR readout), JAK2; settings: for Kd: Kd class, JAK2, read-out: JAK2 Activity Level; for RCK:JAK2 selectivity ratio: ratio Kd (JAK2): Kd(RCK)
T2 construct: made in house; host or cells: E. coli BL21-derived host (T7 phage) or HEK-293
Description: as §1, §2, §3, §4
Additionally, RCK:JAK2 selectivity, as measured by the ratio Kd (JAK2): Kd(RCK) is represented as follows: A represents Kd (JAK2): Kd (RCK)>100; B represents 10<Kd(JAK2): Kd (RCK)<100; C represents 1<Kd (JAK2): Kd (RCK)<10; and D represents Kd(JAK2): Kd (RCK)<1.

JAK3 = target: T3, JAK3 (Homo sapiens, UniProt P52333); assay: Kinase competition binding assay (Kd, qPCR readout), JAK3; settings: for Kd: Kd class, JAK3, read-out: JAK3 Activity Level; for RCK:JAK3 selectivity ratio: ratio Kd (JAK3): Kd (RCK)
T3 construct: made in house; host or cells: E. coli BL21-derived host (T7 phage) or HEK-293
Description: as §1, §2, §3, §4
Similarly, RCK:JAK3 selectivity, as measured by the ratio Kd (JAK3): Kd (RCK) is represented as follows: A represents Kd (JAK3): Kd (RCK)>100; B represents 10<Kd (JAK3): Kd (RCK)<100; C represents 1<Kd (JAK3): Kd (RCK)<10; and D represents Kd (JAK3): Kd(RCK)<1.

T2 sequence (O60674 840-1132 limits assumed): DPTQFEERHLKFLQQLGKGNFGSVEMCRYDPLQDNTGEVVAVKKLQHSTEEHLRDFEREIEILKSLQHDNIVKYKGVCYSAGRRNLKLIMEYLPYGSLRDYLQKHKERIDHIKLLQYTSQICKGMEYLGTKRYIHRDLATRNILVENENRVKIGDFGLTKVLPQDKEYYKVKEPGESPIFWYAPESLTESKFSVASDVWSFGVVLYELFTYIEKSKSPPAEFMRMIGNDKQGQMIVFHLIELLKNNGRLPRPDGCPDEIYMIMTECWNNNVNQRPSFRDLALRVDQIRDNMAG
T3 sequence (P52333 811-1124 limits assumed): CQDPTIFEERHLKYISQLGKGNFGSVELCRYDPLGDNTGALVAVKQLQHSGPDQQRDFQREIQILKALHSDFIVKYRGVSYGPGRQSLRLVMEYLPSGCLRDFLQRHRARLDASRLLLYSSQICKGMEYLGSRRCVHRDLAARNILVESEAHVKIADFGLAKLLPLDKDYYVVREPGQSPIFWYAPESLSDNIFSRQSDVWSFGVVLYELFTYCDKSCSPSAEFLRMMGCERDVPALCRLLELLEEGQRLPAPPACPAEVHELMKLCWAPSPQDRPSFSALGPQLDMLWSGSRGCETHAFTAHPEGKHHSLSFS

Kd [1] | Kd (JAK2) | Kd (JAK3) | Compound | RCK:JAK2 selectivity ratio (JAK2) | RCK:JAK3 selectivity ratio (JAK3)
< 50 nM | 100 to 1000 nM | 100 to 1000 nM | Cc1cc(CNc2[nH]nc(Nc3ccc(N4CCS(=O)(=O)CC4)cc3)c2C(N)=O)cc(C)c1O [Compound 32, 3-((4-(1,1-dioxidothiomorpholino)phenyl)amino)-5-((4-hydroxy-3,5-dimethylbenzyl)amino)-1H-pyrazole-4-carboxamide] | C (C represents 1<Kd (JAK2): Kd (RCK)<10) | B (B represents 10<Kd (JAK3): Kd (RCK)<100)
50 to 100 nM | 100 to 1000 nM | > 1000 nM | Cc1cc(CNc2[nH]nc(Nc3ccc(N4CCCCC4)cn3)c2C(N)=O)cc(C)c1O [Compound 33, 5-((4-hydroxy-3,5-dimethylbenzyl)amino)-3-((5-(piperidin-1-yl)pyridin-2-yl)amino)-1H-pyrazole-4-carboxamide] | C (C represents 1<Kd (JAK2): Kd (RCK)<10) | B (B represents 10<Kd (JAK3): Kd (RCK)<100)
50 to 100 nM | > 1000 nM | > 1000 nM | Cc1cc(CNc2[nH]nc(Nc3ccc(N4CCC(Cl)CC4)cc3)c2C(N)=O)cc(C)c1O [Compound 34, 3-((4-(4-chloropiperidin-1-yl)phenyl)amino)-5-((4-hydroxy-3,5-dimethylbenzyl)amino)-1H-pyrazole-4-carboxamide] | B (B represents 10<Kd(JAK2): Kd (RCK)<100) | B (B represents 10<Kd (JAK3): Kd (RCK)<100)
50 to 100 nM | 100 to 1000 nM | > 1000 nM | Cc1cc(CNc2[nH]nc(Nc3ccc(CN4CCCC4)cc3)c2C(N)=O)cc(C)c1O [Compound 35, 5-((4-hydroxy-3,5-dimethylbenzyl)amino)-3-((4-(pyrrolidin-1-ylmethyl)phenyl)amino)-1H-pyrazole-4-carboxamide] | C (C represents 1<Kd (JAK2): Kd (RCK)<10) | B (B represents 10<Kd (JAK3): Kd (RCK)<100)
< 50 nM | 100 to 1000 nM | > 1000 nM | Cc1cc(CNc2[nH]nc(Nc3ccc(N4CCC(N(C)C)CC4)cc3)c2C(N)=O)cc(C)c1O [Compound 36, 3-((4-(4-(dimethylamino)piperidin-1-yl)phenyl)amino)-5-((4-hydroxy-3,5-dimethylbenzyl)amino)-1H-pyrazole-4-carboxamide] | B (B represents 10<Kd(JAK2): Kd (RCK)<100) | A (A represents Kd (JAK3): Kd (RCK)>100)
< 50 nM | > 1000 nM | > 1000 nM | Cc1cc(CNc2[nH]nc(Nc3ccc(N4CCOCC4)c(F)c3)c2C(N)=O)cc(C)c1O [Compound 37, 3-((3-fluoro-4-morpholinophenyl)amino)-5-((4-hydroxy-3,5-dimethylbenzyl)amino)-1H-pyrazole-4-carboxamide] | B (B represents 10<Kd(JAK2): Kd (RCK)<100) | A (A represents Kd (JAK3): Kd (RCK)>100)
100 to 1000 nM | > 1000 nM | > 1000 nM | Cc1cc(CNc2[nH]nc(Nc3ccc(-c4cnco4)cc3)c2C(N)=O)cc(C)c1O [Compound 38, 5-((4-hydroxy-3,5-dimethylbenzyl)amino)-3-((4-(oxazol-5-yl)phenyl)amino)-1H-pyrazole-4-carboxamide] | A (A represents Kd (JAK2): Kd (RCK)>100) | A (A represents Kd (JAK3): Kd (RCK)>100)
50 to 100 nM | < 50 nM | < 50 nM | Cc1cc(CNc2[nH]nc(Nc3ccc(N4CCN(C(=O)N5CCOCC5)CC4)cc3)c2C(N)=O)cc(C)c1O [Compound 39, 5-((4-hydroxy-3,5-dimethylbenzyl)amino)-3-((4-(4-(morpholine-4-carbonyl)piperazin-1-yl)phenyl)amino)-1H-pyrazole-4-carboxamide] | B (B represents 10<Kd(JAK2): Kd (RCK)<100) | B (B represents 10<Kd (JAK3): Kd (RCK)<100)
> 1000 nM | > 1000 nM | > 1000 nM | CC(=O)Nc1cccc(Nc2n[nH]c(NCc3cc(C)c(O)c(C)c3)c2C(N)=O)c1 [Compound 40, 3-((3-acetamidophenyl)amino)-5-((4-hydroxy-3,5-dimethylbenzyl)amino)-1H-pyrazole-4-carboxamide] | C (C represents 1<Kd (JAK2): Kd (RCK)<10) | C (C represents 1<Kd (JAK3): Kd (RCK)<10)
< 50 nM | 100 to 1000 nM | > 1000 nM | Cc1cc(CNc2[nH]nc(Nc3ccc(N4CCN(C)CC4)c(Cl)c3)c2C(N)=O)cc(C)c1O [Compound 41, 3-((3-chloro-4-(4-methylpiperazin-1-yl)phenyl)amino)-5-((4-hydroxy-3,5-dimethylbenzyl)amino)-1H-pyrazole-4-carboxamide] | B (B represents 10<Kd(JAK2): Kd (RCK)<100) | A (A represents Kd (JAK3): Kd (RCK)>100)
> 1000 nM | > 1000 nM | > 1000 nM | Cc1cc(CNc2[nH]nc(Nc3ccc(F)cc3)c2C(N)=O)cc(C)c1O [Compound 42, 3-((4-fluorophenyl)amino)-5-((4-hydroxy-3,5-dimethylbenzyl)amino)-1H-pyrazole-4-carboxamide] | B (B represents 10<Kd(JAK2): Kd (RCK)<100) | B (B represents 10<Kd (JAK3): Kd (RCK)<100)
> 1000 nM | > 1000 nM | > 1000 nM | Cc1cc(CNc2[nH]nc(Nc3cccc(C#N)c3)c2C(N)=O)cc(C)c1O [Compound 43, 3-((3-cyanophenyl)amino)-5-((4-hydroxy-3,5-dimethylbenzyl)amino)-1H-pyrazole-4-carboxamide] | D (D represents Kd(JAK2): Kd (RCK)<1) | C (C represents 1<Kd (JAK3): Kd (RCK)<10)
100 to 1000 nM | > 1000 nM | > 1000 nM | Cc1cc(CNc2[nH]nc(Nc3ccc(N4CCN(c5ncccn5)CC4)cc3)c2C(N)=O)cc(C)c1O [Compound 44, 5-((4-hydroxy-3,5-dimethylbenzyl)amino)-3-((4-(4-(pyrimidin-2-yl)piperazin-1-yl)phenyl)amino)-1H-pyrazole-4-carboxamide] | B (B represents 10<Kd(JAK2): Kd (RCK)<100) | B (B represents 10<Kd (JAK3): Kd (RCK)<100)
< 50 nM | 100 to 1000 nM | 100 to 1000 nM | Cc1cc(CNc2[nH]nc(Nc3ccc(CN4CCCCC4)cc3)c2C(N)=O)cc(C)c1O [Compound 45, 5-((4-hydroxy-3,5-dimethylbenzyl)amino)-3-((4-(piperidin-1-ylmethyl)phenyl)amino)-1H-pyrazole-4-carboxamide] | C (C represents 1<Kd (JAK2): Kd (RCK)<10) | B (B represents 10<Kd (JAK3): Kd (RCK)<100)
< 50 nM | 100 to 1000 nM | > 1000 nM | Cc1cc(CNc2[nH]nc(Nc3ccc(N4CCSCC4)cc3)c2C(N)=O)cc(C)c1O [Compound 46, 5-((4-hydroxy-3,5-dimethylbenzyl)amino)-3-((4-thiomorpholinophenyl)amino)-1H-pyrazole-4-carboxamide] | B (B represents 10<Kd(JAK2): Kd (RCK)<100) | B (B represents 10<Kd (JAK3): Kd (RCK)<100)
